{
  "source": "paper PMC4188605",
  "about": "“Biochemical and Pharmacological Characterization of the Human Lymphocyte Antigen B-Associated Transcript 5 (BAT5/ABHD16A)” (PLoS ONE, 2014)",
  "molecules": {"B1": {"name": "hBAT5 (Homo sapiens) (protein)", "chain": "MAKLLSCVLGPRLYKIYRERDSERAPASVPETPTAVTAPHSSSWDTYYQPRALEKHADSILALASVFWSISYYSSPFAFFYLYRKGYLSLSKVVPFSHYAGTLLLLLAGVACLRGIGRWTNPQYRQFITILEATHRNQSSENKRQLANYNFDFRSWPVDFHWEEPSSRKESRGGPSRRGVALLRPEPLHRGTADTLLNRVKKLPCQITSYLVAHTLGRRMLYPGSVYLLQKALMPVLLQGQARLVEECNGRRAKLLACDGNEIDTMFVDRRGTAEPQGQKLVICCEGNAGFYEVGCVSTPLEAGYSVLGWNHPGFAGSTGVPFPQNEANAMDVVVQFAIHRLGFQPQDIIIYAWSIGGFTATWAAMSYPDVSAMILDASFDDLVPLALKVMPDSWRGLVTRTVRQHLNLNNAEQLCRYQGPVLLIRRTKDEIITTTVPEDIMSNRGNDLLLKLLQHRYPRVMAEEGLRVVRQWLEASSQLEEASIYSRWEVEEDWCLSVLRSYQAEHGPDFPWSVGEDMSADGRRQLALFLARKHLHNFEATHCTPLPAQNFQMPWHL"}},
  "key": {"hABHD12 [1]": {"target": "T1, hABHD12 (Homo sapiens, UniProt Q8N2K0)", "T1 construct": "expressed in transfected cells; host or cells: HEK293", "T1 sequence (Q8N2K0 1-398)": "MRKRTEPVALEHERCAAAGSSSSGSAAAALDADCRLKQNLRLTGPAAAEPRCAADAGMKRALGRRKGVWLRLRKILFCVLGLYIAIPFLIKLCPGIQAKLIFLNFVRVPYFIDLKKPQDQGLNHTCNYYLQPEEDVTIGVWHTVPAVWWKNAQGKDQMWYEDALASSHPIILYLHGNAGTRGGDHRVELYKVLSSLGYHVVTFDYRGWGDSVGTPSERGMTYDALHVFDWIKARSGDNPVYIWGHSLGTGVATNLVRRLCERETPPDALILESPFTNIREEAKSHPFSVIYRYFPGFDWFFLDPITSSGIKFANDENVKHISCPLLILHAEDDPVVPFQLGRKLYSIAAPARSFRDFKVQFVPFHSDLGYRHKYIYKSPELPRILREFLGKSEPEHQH", "test": "Free fatty acid release assay, hABHD12-HEK293 lysates", "format": "biochemical", "conditions": "25 µM substrate; without BSA; 10 and 20 min", "protocol": "(§1) Figure 4 Fatty acid liberation from various substrates when incubated together with lysates of HEK293 cells expressing hBAT5 or hABHD12. […] Assay blank and fatty acid standard (C18∶1) were included for each condition. FFA content was determined at time-points 10 and 20 min. Data are mean ± SEM from quadruplicate wells in one experiment.\n(§2) We adapted the Free Fatty Acid Assay Kit (Cayman Chemical Item Number 700310) to kinetically monitor fatty acid release from selected substrates using lysates of HEK293 cells (0.3 µg/well) transiently expressing hBAT5 or hABHD12 (as a positive control). The assay protocol was tailored to closely follow the scheme of the 96-well-plate glycerol assay with the exception that BSA was omitted. […] For each tested substrate, assay blank without enzyme and a fatty acid standard (C18∶1-FA, 500 pmol/well) was included."}, "hBAT5": {"target": "T2, hBAT5 (Homo sapiens, UniProt O95870)", "T2 sequence (O95870 1-558)": "B1 chain", "test": "Free fatty acid release assay, hBAT5-HEK293 lysates", "format": "biochemical", "set-up": "host or cells: HEK293", "conditions": "25 µM substrate; without BSA; 10 and 20 min", "protocol": "as §1, §2"}, "hABHD6": {"target": "T3, hABHD6 (Homo sapiens, UniProt Q9BV23)", "T3 construct": "expressed in transfected cells; host or cells: HEK293", "T3 sequence (Q9BV23 1-337)": "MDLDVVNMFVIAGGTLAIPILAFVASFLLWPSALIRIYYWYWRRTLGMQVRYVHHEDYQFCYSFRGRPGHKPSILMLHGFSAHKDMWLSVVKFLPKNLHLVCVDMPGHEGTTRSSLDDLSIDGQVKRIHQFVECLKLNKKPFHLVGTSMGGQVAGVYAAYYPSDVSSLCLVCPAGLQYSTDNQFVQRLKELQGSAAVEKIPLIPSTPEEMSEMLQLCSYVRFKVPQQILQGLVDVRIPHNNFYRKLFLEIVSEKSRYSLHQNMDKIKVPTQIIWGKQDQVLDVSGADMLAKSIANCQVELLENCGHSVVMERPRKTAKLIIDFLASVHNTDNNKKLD", "test": "Hydrolase activity assay, hABHD6-HEK lysates", "format": "biochemical", "conditions": "IC50, hABHD6-HEK lysates"}, "hFAAH": {"target": "T4, hFAAH (Homo sapiens, UniProt O00519)", "T4 construct": "expressed in transfected cells; host or cells: COS-7", "T4 sequence (O00519 1-579)": "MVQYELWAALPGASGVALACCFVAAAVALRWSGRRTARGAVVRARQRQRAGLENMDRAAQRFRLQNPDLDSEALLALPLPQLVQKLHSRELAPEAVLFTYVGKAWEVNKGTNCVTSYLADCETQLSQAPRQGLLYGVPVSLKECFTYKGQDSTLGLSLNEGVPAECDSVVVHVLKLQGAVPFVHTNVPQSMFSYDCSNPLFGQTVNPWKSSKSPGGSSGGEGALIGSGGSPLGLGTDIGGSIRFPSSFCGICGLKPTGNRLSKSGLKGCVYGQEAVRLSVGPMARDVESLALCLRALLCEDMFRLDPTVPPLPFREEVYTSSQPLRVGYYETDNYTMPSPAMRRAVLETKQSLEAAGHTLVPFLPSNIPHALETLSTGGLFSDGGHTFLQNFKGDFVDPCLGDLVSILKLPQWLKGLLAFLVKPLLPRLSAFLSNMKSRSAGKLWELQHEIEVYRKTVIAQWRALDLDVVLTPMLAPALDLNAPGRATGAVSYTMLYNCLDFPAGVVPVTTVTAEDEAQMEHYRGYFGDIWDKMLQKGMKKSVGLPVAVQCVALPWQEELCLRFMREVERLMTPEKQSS", "test": "FAAH activity assay, hFAAH-COS7 membranes (3H-anandamide)", "format": "biochemical"}, "hABHD12 [2]": {"target": "T1, hABHD12", "test": "Hydrolase activity assay, hABHD12-HEK lysates", "format": "biochemical"}, "hMAGL": {"target": "T5, hMAGL (Homo sapiens, UniProt Q99685)", "T5 construct": "expressed in transfected cells; host or cells: HEK", "T5 sequence (Q99685 1-303)": "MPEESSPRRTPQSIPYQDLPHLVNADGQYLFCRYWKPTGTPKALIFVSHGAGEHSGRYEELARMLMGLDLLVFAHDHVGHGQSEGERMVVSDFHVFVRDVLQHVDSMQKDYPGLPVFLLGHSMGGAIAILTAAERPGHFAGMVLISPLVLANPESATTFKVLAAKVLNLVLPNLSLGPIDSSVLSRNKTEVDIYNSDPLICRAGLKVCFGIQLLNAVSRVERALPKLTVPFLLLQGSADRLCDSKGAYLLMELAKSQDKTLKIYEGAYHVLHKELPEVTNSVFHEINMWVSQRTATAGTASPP", "test": "Hydrolase activity assay, hMAGL-HEK lysates", "format": "biochemical"}, "MAGL": {"target": "T6, MAGL (Mus musculus, UniProt O35678)", "T6 sequence (O35678 1-303)": "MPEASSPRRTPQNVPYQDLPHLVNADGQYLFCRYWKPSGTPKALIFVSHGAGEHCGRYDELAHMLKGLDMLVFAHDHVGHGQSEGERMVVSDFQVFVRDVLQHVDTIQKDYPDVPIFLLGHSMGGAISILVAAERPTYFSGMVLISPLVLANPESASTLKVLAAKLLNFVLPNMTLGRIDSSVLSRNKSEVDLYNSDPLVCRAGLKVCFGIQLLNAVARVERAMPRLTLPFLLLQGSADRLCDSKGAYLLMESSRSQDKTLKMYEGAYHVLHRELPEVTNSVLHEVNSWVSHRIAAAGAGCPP", "test": "Competitive ABPP, mouse brain membrane proteome: MAGL doublet", "conditions": "reference inhibitor at the indicated concentration, used to identify the band (refs 21, 22)"}, "ABHD6": {"target": "T7, ABHD6 (Mus musculus, UniProt Q8R2Y0)", "T7 sequence (Q8R2Y0 1-336)": "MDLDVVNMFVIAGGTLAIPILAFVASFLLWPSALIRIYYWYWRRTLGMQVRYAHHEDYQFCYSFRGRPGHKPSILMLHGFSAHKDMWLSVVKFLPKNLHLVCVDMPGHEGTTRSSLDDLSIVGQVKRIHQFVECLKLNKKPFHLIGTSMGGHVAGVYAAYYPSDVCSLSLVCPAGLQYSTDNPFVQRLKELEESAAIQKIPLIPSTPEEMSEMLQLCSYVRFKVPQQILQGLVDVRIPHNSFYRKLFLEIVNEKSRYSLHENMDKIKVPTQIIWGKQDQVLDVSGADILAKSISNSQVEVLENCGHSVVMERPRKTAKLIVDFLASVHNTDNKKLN", "test": "Competitive ABPP, mouse brain membrane proteome: ABHD6 band", "conditions": "reference inhibitor at the indicated concentration, used to identify the band (refs 18, 23, 24)"}, "[3]": {"substrate": "CCCCC/C=C\\C/C=C\\CCCCCCCCOCC(O)CO", "test": "cells, lysate or membranes named", "conditions": "other: substrate of hBAT5, time-point 90 min, n=3", "description": "HEK293 cells were transiently transfected with the cDNA encoding hBAT5, as detailed in the Methods section. After 48 h, cells were harvested and lysates prepared for hydrolase activity measurements using a sensitive fluorescent glycerol assay. […] Glycerol production was determined at time-point 60 min.\nAfter 48 h, cells were harvested and lysates prepared for hydrolase activity measurements. Cellular lysates (0.3 µg/well) were incubated together with the indicated concentrations of 1-LG in assay mixes containing (+ BSA) or not (– BSA) 0.5% (w/v) BSA (A) or with 15d-PGJ2-G in assay mix containing BSA (B). […] As crude cellular lysates were used, total protein concentration was used instead of true enzyme concentration. […] Values are mean ± SEM from three independent experiments.\nGlycerol liberated from the hydrolysis of glycerolipid substrates was determined kinetically using a fluorometric assay, essentially as previously described [10]. Briefly, glycerol production was coupled via a three-step enzymatic cascade to hydrogen peroxide (H2O2) dependent generation of resorufin whose fluorescence (λex 530; λem 590 nm) was kinetically monitored using a Tecan Infinite M200 plate reader (Tecan Group Ltd., Männedorf, Switzerland). The assays routinely contained 0.5% (w/v) BSA (essentially fatty acid free) as a carrier for lipophilic compounds. […] The twelve MAG substrates were tested also in assays without BSA. In addition, four commercially available PG-Gs were included. To monitor assay performance, assay blanks without enzyme, cellular background (HEK293/Mock cell lysates) as well as a glycerol standard were included for each tested substrate. Fluorescence of the assay blank was subtracted before calculation of the final results."}},
  "note": "Several values for one entry are separate records, joined by “and”; a condition that tells them apart may be missing. Equal entries are not always repeated.",
  "data": [
    {"molecule": "CCCCC/C=C\\C/C=C\\C/C=C\\C/C=C\\CCCC(=O)OC[C@@H](O)CO", "note": "[1-AG, 1-arachidonoylglycerol]", "values": [
      {"measurement": "fatty acid release by hABHD12 (in words)", "setting": "hABHD12 [1]", "value": "hydrolyzed"},
      {"measurement": "fatty acid release by hBAT5 (in words)", "setting": "hBAT5", "value": "hydrolyzed"}
    ]},
    {"molecule": "CCC(C)C(O)C(C)C(=O)C(C)C=C(C)CC(C)C1OC(=O)C1C", "note": "(centres unmarked) [Ebelactone A, ebelactone A]", "values": [
      {"measurement": "IC50", "setting": "hABHD6", "value": 870, "unit": "nM"},
      {"measurement": "remaining activity at 10 µM", "setting": "hFAAH", "value": 87.3, "unit": "%"},
      {"measurement": "sensitivity of hFAAH (in words)", "setting": "hFAAH", "value": "resistant"},
      {"measurement": "remaining activity at 10 µM", "setting": "hABHD12 [2]", "value": 100, "unit": "%"},
      {"measurement": "sensitivity of hABHD12 (in words)", "setting": "hABHD12 [2]", "value": "resistant"},
      {"measurement": "remaining activity at 10 µM", "setting": "hMAGL", "value": 90.8, "unit": "%"},
      {"measurement": "sensitivity of hMAGL (in words)", "setting": "hMAGL", "value": "resistant"}
    ]},
    {"molecule": "O=C(N1CCC(C(c2ccc3c(c2)OCO3)c2ccc3c(c2)OCO3)CC1)n1cncn1", "note": "[JJKK-048]", "values": [
      {"measurement": "inhibition of probe labeling of MAGL by reference inhibitor", "setting": "MAGL", "value": "inhibited"}
    ]},
    {"molecule": "CCCCCCCC/C=C\\CCCCCCCC(=O)OC[C@@H](O)COP(=O)(O)O", "note": "[LPA, 1-oleoyl-lysophosphatidic acid]", "values": [
      {"measurement": "fatty acid release by hABHD12 (in words)", "setting": "hABHD12 [1]", "value": "not from LPA"},
      {"measurement": "fatty acid release by hBAT5 (in words)", "setting": "hBAT5", "value": "no statistically significant liberation of oleic acid"}
    ]},
    {"molecule": "CCCCCCCC/C=C\\CCCCCCCC(=O)OC[C@@H](O)COP(=O)(O)OC[C@H](N)C(=O)O", "note": "[LPS, 1-oleoyl-lysophosphatidylserine]", "values": [
      {"measurement": "fatty acid release by hABHD12 (in words)", "setting": "hABHD12 [1]", "value": "catalyzed oleic acid release"},
      {"measurement": "fatty acid release by hBAT5 (in words)", "setting": "hBAT5", "value": "no statistically significant liberation of oleic acid"}
    ]},
    {"molecule": "CN(Cc1cccc(-c2ccncc2)c1)C(=O)Oc1ccc(-c2ccc(C(N)=O)cc2)cc1", "note": "[WWL70]", "values": [
      {"measurement": "inhibition of probe labeling of ABHD6 by reference inhibitor", "setting": "ABHD6", "value": "inhibited"}
    ]},
    {"molecule": "B1", "values": [
      {"measurement": "Km", "setting": "[3]; with 0.5% BSA", "value": "137.8 ± 30.6 µM and 140 µM"},
      {"measurement": "Km", "setting": "[3]; without BSA", "value": "6.9 ± 1.7", "unit": "µM"}
    ]}
  ]
}
